Measured values reported in ChEMBL document CHEMBL3046287, “Azoxystrobin resistance of French Mycosphaerella graminicola strains assessed by four in vitro bioassays and by screening of G143A substitution” (Crop Prot, 2010).
Values after ≈ are worked out from the molar mass of the structure shown.

Experiments:
Type in all cases: functional, organism-based
Zymoseptoria tritici [1] = assay: Antifungal activity against azoxystrobin-resistant Zymoseptoria tritici T0290 carrying cytochrome-b A143 allele assessed as fungal growth inhibition after 6 days at 20 degC by microplate without alamar blue assay; conditions: T0290, 144 h
Zymoseptoria tritici [2] = assay: Antifungal activity against azoxystrobin-sensitive Zymoseptoria tritici T0466 carrying cytochrome-b G143 allele assessed as fungal colony perpendicular diameter changes after 10 days at 18 degC by spotting on PDA medium assay; conditions: T0466, 240 h
Zymoseptoria tritici [3] = assay: Antifungal activity against azoxystrobin-resistant Zymoseptoria tritici T0345 carrying cytochrome-b A143 allele assessed as fungal growth inhibition after 6 days at 20 degC by microplate without alamar blue assay; conditions: T0345, 144 h
Zymoseptoria tritici [4] = assay: Antifungal activity against azoxystrobin-sensitive Zymoseptoria tritici T083 carrying cytochrome-b G143 allele assessed as fungal colony perpendicular diameter changes after 10 days at 18 degC by spotting on PDA medium assay; conditions: T083, 240 h
Zymoseptoria tritici [5] = assay: Antifungal activity against azoxystrobin-sensitive Zymoseptoria tritici T0470 carrying cytochrome-b G143 allele assessed as fungal colony perpendicular diameter changes after 10 days at 18 degC by spotting on PDA medium assay; conditions: T0470, 240 h
Zymoseptoria tritici [6] = assay: Antifungal activity against azoxystrobin-sensitive Zymoseptoria tritici IPO94269 carrying cytochrome-b G143 allele assessed as inhibition of spore germination after 2 days at 18 degC by spotting on PDA medium assay; conditions: IPO94269, 48 h
Zymoseptoria tritici [7] = assay: Antifungal activity against azoxystrobin-sensitive Zymoseptoria tritici T0466 carrying cytochrome-b G143 allele assessed as fungal growth inhibition after 6 days at 20 degC by microplate without alamar blue assay; conditions: T0466, 144 h
Zymoseptoria tritici [8] = assay: Antifungal activity against azoxystrobin-sensitive Zymoseptoria tritici T0466 carrying cytochrome-b G143 allele assessed as inhibition of spore germination after 2 days at 18 degC by spotting on PDA medium assay; conditions: T0466, 48 h
Zymoseptoria tritici [9] = assay: Antifungal activity against azoxystrobin-sensitive Zymoseptoria tritici IPO94269 carrying cytochrome-b G143 allele assessed as fungal colony perpendicular diameter changes after 10 days at 18 degC by spotting on PDA medium assay; conditions: IPO94269, 240 h
Zymoseptoria tritici [10] = assay: Antifungal activity against azoxystrobin-resistant Zymoseptoria tritici T0254 carrying cytochrome-b A143 allele assessed as fungal growth inhibition after 6 days at 20 degC by microplate without alamar blue assay; conditions: T0254, 144 h
Zymoseptoria tritici [11] = assay: Antifungal activity against azoxystrobin-resistant Zymoseptoria tritici T0293 carrying cytochrome-b A143 allele assessed as inhibition of spore germination after 2 days at 18 degC by spotting on PDA medium assay; conditions: T0293, 48 h
Zymoseptoria tritici [12] = assay: Antifungal activity against azoxystrobin-sensitive Zymoseptoria tritici T0211 carrying cytochrome-b G143 allele assessed as fungal growth inhibition after 6 days at 20 degC by microplate without alamar blue assay; conditions: T0211, 144 h
Zymoseptoria tritici [13] = assay: Antifungal activity against azoxystrobin-sensitive Zymoseptoria tritici T0384 carrying cytochrome-b G143 allele assessed as fungal colony perpendicular diameter changes after 10 days at 18 degC by spotting on PDA medium assay; conditions: T0384, 240 h
Zymoseptoria tritici [14] = assay: Antifungal activity against azoxystrobin-sensitive Zymoseptoria tritici IPO94269 carrying cytochrome-b G143 allele assessed as fungal growth inhibition after 6 days at 20 degC by microplate without alamar blue assay; conditions: IPO94269, 144 h
Zymoseptoria tritici [15] = assay: Antifungal activity against azoxystrobin-resistant Zymoseptoria tritici T0293 carrying cytochrome-b A143 allele assessed as fungal growth inhibition after 6 days at 20 degC by microplate without alamar blue assay; conditions: T0293, 144 h
Zymoseptoria tritici [16] = assay: Antifungal activity against azoxystrobin-resistant Zymoseptoria tritici T049 carrying cytochrome-b A143 allele assessed as fungal colony perpendicular diameter changes after 10 days at 18 degC by spotting on PDA medium assay; conditions: T049, 240 h
Zymoseptoria tritici [17] = assay: Antifungal activity against azoxystrobin-sensitive Zymoseptoria tritici T0209 carrying cytochrome-b G143 allele assessed as inhibition of spore germination after 2 days at 18 degC by spotting on PDA medium assay; conditions: T0209, 48 h
Zymoseptoria tritici [18] = assay: Antifungal activity against azoxystrobin-resistant Zymoseptoria tritici T0254 carrying cytochrome-b A143 allele assessed as inhibition of spore germination after 2 days at 18 degC by spotting on PDA medium assay; conditions: T0254, 48 h
Zymoseptoria tritici [19] = assay: Antifungal activity against azoxystrobin-sensitive Zymoseptoria tritici T0214 carrying cytochrome-b G143 allele assessed as inhibition of spore germination after 2 days at 18 degC by spotting on PDA medium assay; conditions: T0214, 48 h
Zymoseptoria tritici [20] = assay: Antifungal activity against azoxystrobin-resistant Zymoseptoria tritici T0485 carrying cytochrome-b A143 allele assessed as fungal colony perpendicular diameter changes after 10 days at 18 degC by spotting on PDA medium assay; conditions: T0485, 240 h
Zymoseptoria tritici [21] = assay: Antifungal activity against azoxystrobin-resistant Zymoseptoria tritici T032 carrying cytochrome-b A143 allele assessed as fungal growth inhibition after 6 days at 20 degC by microplate without alamar blue assay; conditions: T032, 144 h
Zymoseptoria tritici [22] = assay: Antifungal activity against azoxystrobin-resistant Zymoseptoria tritici T0262 carrying cytochrome-b A143 allele assessed as fungal colony perpendicular diameter changes after 10 days at 18 degC by spotting on PDA medium assay; conditions: T0262, 240 h
Zymoseptoria tritici [23] = assay: Antifungal activity against azoxystrobin-sensitive Zymoseptoria tritici T0471 carrying cytochrome-b G143 allele assessed as fungal growth inhibition after 6 days at 20 degC by microplate without alamar blue assay; conditions: T0471, 144 h
Zymoseptoria tritici [24] = assay: Antifungal activity against azoxystrobin-resistant Zymoseptoria tritici T0451 carrying cytochrome-b A143 allele assessed as fungal growth inhibition after 6 days at 20 degC by microplate without alamar blue assay; conditions: T0451, 144 h
Zymoseptoria tritici [25] = assay: Antifungal activity against azoxystrobin-resistant Zymoseptoria tritici T055 carrying cytochrome-b A143 allele assessed as fungal colony perpendicular diameter changes after 10 days at 18 degC by spotting on PDA medium assay; conditions: T055, 240 h
Zymoseptoria tritici [26] = assay: Antifungal activity against azoxystrobin-sensitive Zymoseptoria tritici T0470 carrying cytochrome-b G143 allele assessed as fungal growth inhibition after 6 days at 20 degC by microplate without alamar blue assay; conditions: T0470, 144 h
Zymoseptoria tritici [27] = assay: Antifungal activity against azoxystrobin-resistant Zymoseptoria tritici T0242 carrying cytochrome-b A143 allele assessed as inhibition of spore germination after 2 days at 18 degC by spotting on PDA medium assay; conditions: T0242, 48 h
Zymoseptoria tritici [28] = assay: Antifungal activity against azoxystrobin-resistant Zymoseptoria tritici T0251 carrying cytochrome-b A143 allele assessed as inhibition of spore germination after 2 days at 18 degC by spotting on PDA medium assay; conditions: T0251, 48 h
Zymoseptoria tritici [29] = assay: Antifungal activity against azoxystrobin-resistant Zymoseptoria tritici T032 carrying cytochrome-b A143 allele assessed as inhibition of spore germination after 2 days at 18 degC by spotting on PDA medium assay; conditions: T032, 48 h
Zymoseptoria tritici [30] = assay: Antifungal activity against azoxystrobin-sensitive Zymoseptoria tritici T0148 carrying cytochrome-b G143 allele assessed as fungal colony perpendicular diameter changes after 10 days at 18 degC by spotting on PDA medium assay; conditions: T0148, 240 h

## CO/C=C(/C(=O)OC)c1ccccc1Oc1cc(Oc2ccccc2C#N)ncn1 [AZOXYSTROBIN]
Zymoseptoria tritici [1]
  IC50: > 100 µg/mL
Zymoseptoria tritici [2]
  IC50: 0.11 µg/mL (≈ 0.273 µM)
Zymoseptoria tritici [3]
  IC50: > 100 µg/mL
Zymoseptoria tritici [4]
  IC50: 0.22 µg/mL (≈ 0.545 µM)
Zymoseptoria tritici [5]
  IC50: 0.06 µg/mL (≈ 0.149 µM)
Zymoseptoria tritici [6]
  IC50: 0.06 µg/mL (≈ 0.149 µM)
Zymoseptoria tritici [7]
  IC50: < 0.01 µg/mL
Zymoseptoria tritici [8]
  IC50: 0.94 µg/mL (≈ 2.33 µM)
Zymoseptoria tritici [9]
  IC50: 0.1 µg/mL (≈ 0.248 µM)
Zymoseptoria tritici [10]
  IC50: 32.6 µg/mL (≈ 80.8 µM)
Zymoseptoria tritici [11]
  IC50: 11.4 µg/mL (≈ 28.2 µM)
Zymoseptoria tritici [12]
  IC50: 0.02 µg/mL (≈ 0.0496 µM)
Zymoseptoria tritici [13]
  IC50: 0.33 µg/mL (≈ 0.818 µM)
Zymoseptoria tritici [14]
  IC50: 0.03 µg/mL (≈ 0.0744 µM)
Zymoseptoria tritici [15]
  IC50: > 100 µg/mL
Zymoseptoria tritici [16]
  IC50: 19.4 µg/mL (≈ 48.2 µM)
Zymoseptoria tritici [17]
  IC50: 0.09 µg/mL (≈ 0.223 µM)
Zymoseptoria tritici [18]
  IC50: 7.17 µg/mL (≈ 17.8 µM)
Zymoseptoria tritici [19]
  IC50: 0.03 µg/mL (≈ 0.0744 µM)
Zymoseptoria tritici [20]
  IC50: 10.6 µg/mL (≈ 26.2 µM)
Zymoseptoria tritici [21]
  IC50: > 100 µg/mL
Zymoseptoria tritici [22]
  IC50: 9.91 µg/mL (≈ 24.6 µM)
Zymoseptoria tritici [23]
  IC50: 0.05 µg/mL (≈ 0.124 µM)
Zymoseptoria tritici [24]
  IC50: > 100 µg/mL
Zymoseptoria tritici [25]
  IC50: 10.2 µg/mL (≈ 25.2 µM)
Zymoseptoria tritici [26]
  IC50: < 0.01 µg/mL
Zymoseptoria tritici [27]
  IC50: 18.4 µg/mL (≈ 45.7 µM)
Zymoseptoria tritici [28]
  IC50: 34.1 µg/mL (≈ 84.7 µM)
Zymoseptoria tritici [29]
  IC50: 11.6 µg/mL (≈ 28.7 µM)
Zymoseptoria tritici [30]
  IC50: 0.06 µg/mL (≈ 0.149 µM)
